Cytotoxicity data for 96 compounds are collected here from ChEMBL document CHEMBL3507680, “University of Dundee, Gates Library screen for HepG2 cell viability”.

The data set is described as follows: Human HepG2 cell viability assay in 384 well format. The class given is toxicity, cell-based. On the set-up: dose 125 nL, time 70.5 hour; cytotoxicity at 70.5 h: concentration not given beside the values. Particulars: HepG2 cells, read-out: Inhibition.
For the compound `CN(Cc1ccc(F)cc1)Cc1nc(-c2cnccn2)no1`, the cytotoxicity at 70.5 h is -7.07%. As for `CCOCC(=O)N1CCc2nc(C)nc(NC(C)C)c2CC1`, the figure is 16%. As for `CCS(=O)(=O)N1C[C@@H](c2ccccc2)[C@@]2(CCNC2=O)C1`, the figure is -4.06%; as for `O=C(c1ccoc1)N1CCC2(CCCN(c3ncc(F)cn3)C2)C1` (stereo unspecified), -1.48%; as for `CCN1CCO[C@@H]2CN(C(=O)NCc3ccccc3)CC[C@@H]2C1`, -4.68%. As for `COC[C@@]12CCC[C@@H]1CN(C(=O)COc1ccccc1OC)C2`, the figure is -3.63%; as for `NC(=O)C1Cn2ccnc2C2(CCN(C(=O)c3ccncc3)CC2)O1` (stereo unspecified), -4.78%. As for `O=C([C@@H]1CCCO1)N1CCN(Cc2ccncc2)c2ncccc2C1`, the cytotoxicity at 70.5 h was -0.675%. As for `CN(C)Cc1nc2c(o1)CN(C(=O)c1ccncc1F)C2`, the figure is -8.38%; as for `CNC(=O)[C@H]1C[C@@H]2CN(C(=O)c3ccc(C)nc3)C[C@@H]2N1C`, -15.1%; as for `CNC(=O)[C@H]1C[C@@H]2CN(C(=O)c3cncc(C)c3)C[C@@H]2N1C`, -16.6%. Consider `CCN(CC)Cc1nc2c(o1)CN(C(=O)c1ccncc1F)C2`, for which the cytotoxicity at 70.5 h is -4.3%. For `CCOCC1CN(C(=O)CC2=CCCCC2)Cc2nnn(C)c21` (stereo unspecified), the cytotoxicity at 70.5 h was -12.8%. As for `O=C([C@@H]1CCO[C@@H]2CCN(CC3CC3)C[C@H]21)N1CCCC1`, the figure is -2.49%; as for `O=C([C@H]1CCCO1)N1CCC2(CC1)Cc1ccccc1CNC2=O`, 3.51%. As for `Cc1cccc(-c2nnn3c2COC(CNC(=O)N2CCCC2)C3)c1` (stereo unspecified), the figure is 1.74%; as for `O=C1CO[C@@H]2CNC[C@H]2N1CC1CC1`, 2.73%; as for `Cc1ccc2c(c1)C(N1CCOCC1)CC21CCNCC1` (stereo unspecified), -8.36%.

With `CCc1cnc(N2C[C@H]3CCCC(N(C)Cc4ccccn4)[C@H]3C2)nc1` (stereo partly specified), the cytotoxicity at 70.5 h was -10.1%. Take `CC(C)Cn1c2c(ccc1=O)CC(NC(=O)c1ccsc1)CC2` (stereo unspecified): the cytotoxicity at 70.5 h is -11.8%. As for `CS(=O)(=O)N1CCOCC2(CCN(c3cnccn3)CC2)C1`, the figure is -7.29%; as for `Cn1cccc1C(=O)N1C[C@H]2CN(CCN3CCCC3)C(=O)[C@H]2C1`, -8.62%; as for `Cc1cnc(C(=O)N2CCC3(CCCN(c4nncs4)C3)C2)cn1` (stereo unspecified), -0.974%. As for `COc1ccc(C(=O)N2CCN(C(=O)Cn3nccc3C)CC2)cc1`, the figure is 1.46%; as for `Cc1nc(CN(C)CC2CCCN(CCc3ccc(Cl)cc3)C2)n(C)n1` (stereo unspecified), -19.1%.

For `CS(=O)(=O)N1CCc2[nH]cnc2C12CCN(C(=O)c1ccc[nH]1)CC2`, the cytotoxicity at 70.5 h was -3.3%.

`Cc1nc(-c2ccncc2)ncc1C(C)NC(=O)C1=NN(C)C(=O)CC1` (stereo unspecified): the cytotoxicity at 70.5 h was -8.41%. `Nc1cc(N2CCCC(CO)(Cc3ccccc3F)C2)nc(N)n1` (stereo unspecified): the cytotoxicity at 70.5 h is 28.8%. As for `Cc1ccc(NC2(C(=O)NCc3c(C)n[nH]c3C)CCCC2)cc1`, the cytotoxicity at 70.5 h was -5.51%. Regarding `COc1cccc(C(=O)C2CCCN(c3cc(C#N)ccn3)C2)c1` (stereo unspecified), the cytotoxicity at 70.5 h is -10.3%. For `O=C(NCCn1cccc1)C1CCN(C2CCCCC2)CC1`, the cytotoxicity at 70.5 h is -13.6%. For `COc1ccc(C)cc1-n1c(COC(C)C)n[nH]c1=O`, the cytotoxicity at 70.5 h is -18.9%.

On to `O=C(c1cccc(S(=O)(=O)NCCc2nccs2)c1)N1CCOCC1`, for which the cytotoxicity at 70.5 h is -3.1%. `COc1cccc(CC(=O)N2CCCN(c3ccnc(C)c3)CC2)c1`: the cytotoxicity at 70.5 h was -3.97%.

On to `CCN1CCN(S(=O)(=O)N2CCC(OC)CC2)[C@H]2CS(=O)(=O)C[C@H]21`, for which the cytotoxicity at 70.5 h is -9.02%.

`Cc1ccccc1SC1CCN(C(=O)C2CNCC(=O)N2)CC1` (stereo unspecified): the cytotoxicity at 70.5 h was -1.6%. As for `CN(CCCc1ccccc1)C(=O)c1cn2c(n1)CNCC2`, the figure is -3.6%; as for `COc1ccc(N2CCN(Cc3nc(CSC)no3)C(C)C2=O)cc1` (stereo unspecified), -21.8%; as for `CCCSc1ccccc1NC(=O)N1CCC(N2CCSCC2)CC1`, 0.648%. As for `Cc1cc(-c2c(C)c(-c3cnn(C)c3)nc(N)c2C#N)oc1C`, the figure is 37.4%; as for `CN(C)C(=O)CN1C[C@@H]2CC[C@H](C1)N(C(=O)CCCn1cncn1)C2`, -8.72%; as for `FC(F)(F)c1ccnc(N2CCC(c3nccn3CC3CC3)CC2)n1`, -4.46%.

On to `COc1c(C)cc(S(=O)(=O)NCC2CNCCOC2)cc1C` (stereo unspecified), for which the cytotoxicity at 70.5 h was found to be 3.62%.

With `Cc1nc2ccccc2n1Cc1cc(C(=O)NC2CCOC2)no1` (stereo unspecified), the cytotoxicity at 70.5 h was -18.8%. As for `CC(C)n1ccnc1C1CCCN(c2nc3ccccc3s2)C1` (stereo unspecified), the figure is 2.12%; as for `CN(C)CC(=O)Nc1ccc(C(=O)N(C)CCc2cn[nH]c2)cc1`, -1.37%; as for `Cc1cc2[nH]c(CN3CCCCC3c3cccc(F)c3)cc(=O)n2n1` (stereo unspecified), -5.96%. As for `CC(C)CN(Cc1ccccn1)Cc1ccccc1C(=O)O`, the figure is 14.4%.

Turning to `Cc1ccc(C(=O)N2CCC3(CC2)CN(CCN(C)C)C(=O)O3)c(F)c1`, the cytotoxicity at 70.5 h is 7.08%. As for `COc1cc(OC)cc(C2CC(=O)Nc3c2nc2n3CCCC2)c1` (stereo unspecified), the figure is -3.11%.

Regarding `CC(C)c1nnc(CN2CCC3(CC2)Nc2ccccc2NC3=O)o1`, the cytotoxicity at 70.5 h worked out at 18%.

In the case of `CC(C)S(=O)(=O)NCc1cccnc1Oc1ccc(F)cc1F`, the cytotoxicity at 70.5 h worked out at 1.03%.

Turning to `CC(C)N(C)C(=O)Cn1ncc(N(C)CCc2ccccc2)cc1=O`, the cytotoxicity at 70.5 h was -3.47%. As for `NC(=O)c1cnc2n1CCN(C(=O)c1cccc(Cn3cccn3)c1)C2`, the figure is -5.38%. In the case of `CC1(c2ccccc2)CCC(=O)N(CC2(N3CCOCC3)CCCC2)C1` (stereo unspecified), the cytotoxicity at 70.5 h was 6.77%.

`Nc1ncc(CN2CCC(CCC(=O)NC3CC3)CC2)cn1`: the cytotoxicity at 70.5 h worked out at 0.29%.

With `Cc1cc(N2CCN(C(=O)c3cnn(C(C)C)c3)CC2)cc(C)n1`, the cytotoxicity at 70.5 h came to 7.11%. `CCOc1ccc(OCc2nc3c(c(=O)[nH]2)CCNC3)cc1`: the cytotoxicity at 70.5 h is -13.5%. On to `CNc1ccnc(N2CCC(c3nnc(CN4CCCC4)n3C)CC2)n1`, for which the cytotoxicity at 70.5 h came to 13.4%.

For `CN(CCCc1cnn(C)c1)c1nccc(-c2cc(C(=O)O)ccn2)n1`, the cytotoxicity at 70.5 h is -5.12%. For the compound `O=C1NCCCc2[nH]c(-c3nc(C4CCCCC4)no3)nc21`, the cytotoxicity at 70.5 h came to 8.47%. As for `O=C(c1cn2cc(Cl)cnc2n1)N1CCOCC(O)(CN2CCCC2)C1` (stereo unspecified), the figure is -1.97%.

`Cc1cc(C)c(C(=O)N2CCN(c3ncccc3C#N)CC2)c(=O)[nH]1`: the cytotoxicity at 70.5 h was found to be 1.08%. On to `Cc1nc(CN2CCC(c3cc(N4CCCC4)ncn3)CC2)cs1`, for which the cytotoxicity at 70.5 h was determined as 4.68%. `COCCCn1cnnc1CNC(=O)c1[nH]c2c(C)cc(C)cc2c1C`: the cytotoxicity at 70.5 h was -6.04%. As for `CCc1ocnc1C(=O)N1CCC(n2cc(-c3ccsc3)nn2)CC1`, the figure is -10.3%; as for `CC(=O)NCC(=O)N1Cc2cnc(CC(C)C)nc2C1`, -5.57%; as for `CCC(CO)N(Cc1ccco1)C(=O)c1sccc1NC(C)=O` (stereo unspecified), -5.95%. As to `CN(C)CCNCC1(O)CCCN(Cc2cccc(F)c2F)C1=O` (stereo unspecified), the cytotoxicity at 70.5 h came out at 16.1%. On to `CCCN1CC2(CCN(C)CC2)CC1C(=O)NCCn1cccn1` (stereo unspecified), for which the cytotoxicity at 70.5 h is -6%. As for `CN(C)[C@H]1CCN(c2ccnc(C(=O)NCc3ccco3)c2)C1`, the figure is -5.04%; as for `COCC1CCN(Cc2cc(O)c3c(C)ccc(C)c3n2)CC1`, 17.7%; as for `CN(CCc1cnn(C)c1)C(=O)C1COc2ccccc2C1` (stereo unspecified), -10.5%. As for `OC1(CN2CCCC2)COCCN(c2nnc(-c3ccccc3)s2)C1` (stereo unspecified), the figure is 15.8%; as for `N[C@H]1CN(C(=O)CCc2cc(Cl)no2)C[C@@H]1c1ccccc1`, 29%. As for `CC(C)N(C)Cc1cncc2c1CCN(Cc1ccoc1)C2`, the figure is -1.23%; as for `CN(C)Cc1cncc2c1CCN(Cc1ccoc1)C2`, -4.55%; as for `CCN1CCc2c(CNC(=O)c3nccn3C)cncc2C1`, -10.7%. With `CC(C)N1CCc2c(CNC(=O)c3nccn3C)cncc2C1`, the cytotoxicity at 70.5 h was -4.9%. As for `CN1CCO[C@@H]2CN(C(=O)NCc3ccccc3)CC[C@@H]2C1`, the figure is 9.51%; as for `CCn1ncc2c1C(COC)N(C(=O)c1cscn1)CC2` (stereo unspecified), 6.98%. As for `O=C(COC[C@@]12CCC[C@@H]1CN(C1CCCC1)C2)N1CCCC1`, the figure is -1.08%.

Consider `CCn1ncc2c1C(COC)N(C(=O)c1cccs1)CC2` (stereo unspecified), for which the cytotoxicity at 70.5 h is 0.803%. Turning to `CCn1ncc2c1C(COC)N(C(=O)c1ccsc1)CC2` (stereo unspecified), the cytotoxicity at 70.5 h was -6.73%. As for `CCN1C[C@H]2C3(CCN(S(C)(=O)=O)CC3)CC[C@@]2(C(=O)N(C)C)C1`, the figure is -9.68%; as for `CCN1C[C@H]2C3(CCN(C(=O)NC(C)C)CC3)CC[C@@]2(C(=O)N(C)C)C1`, -8.21%. As for `CCN1CCC2(CC1)CC(NC(=O)c1csnn1)c1ccccc1O2` (stereo unspecified), the figure is -7.53%; as for `CCN1CCOCC12CCN(c1nccs1)CC2`, -13.5%. On to `O=C(NCc1cnc2n1CCN(CC1CCOCC1)C2)c1ccno1`, for which the cytotoxicity at 70.5 h was found to be 31.3%. As for `OCCOCc1n[nH]c2c1CN(Cc1ccccn1)C2`, the figure is -7.78%.

For `Cc1cncc(C(=O)N2CCC3(CCCN(c4nncs4)C3)C2)c1` (stereo unspecified), the cytotoxicity at 70.5 h was -3.85%. As for `O=C(NCc1cnc2n1CCN(Cc1nccs1)C2)c1ccno1`, the figure is -3.38%; as for `Fc1cccc(CN2CCOC3(COCCN(CC4CC4)C3)C2)c1` (stereo unspecified), -8.93%; as for `O=C(c1ccncc1F)N1Cc2nc(CN3CCCCC3)oc2C1`, -8.64%. For the compound `CN1[C@H](Cn2cncn2)C[C@@H]2CN(Cc3ccsc3)CC[C@@H]21`, the cytotoxicity at 70.5 h was -3.81%. For the compound `O=C(Nc1cccnc1)[C@H]1CN(Cc2ccco2)C[C@H]2OCC[C@@H]12`, the cytotoxicity at 70.5 h is -7.09%.
